Reference: paper PMC10578927, “An unconventional gatekeeper mutation sensitizes inositol hexakisphosphate kinases to an allosteric inhibitor” (eLife, 2023)

Target: T1, IP6KA^M85V (Entamoeba histolytica, UniProt N9UNA8, M85V)
T1 sequence (N9UNA8 1-270 M85V): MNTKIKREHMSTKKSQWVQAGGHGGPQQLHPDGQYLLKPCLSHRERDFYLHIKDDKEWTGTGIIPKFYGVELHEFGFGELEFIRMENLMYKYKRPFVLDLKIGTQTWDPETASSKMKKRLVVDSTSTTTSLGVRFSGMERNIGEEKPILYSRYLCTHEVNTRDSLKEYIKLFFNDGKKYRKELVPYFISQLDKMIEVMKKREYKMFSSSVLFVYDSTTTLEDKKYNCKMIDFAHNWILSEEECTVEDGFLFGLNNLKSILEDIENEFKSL
Assay: NMR activity assay for EhIP6KA constructs
Type: biochemical

Compound: O=C(O)c1ccc2c(c1)C(=O)N(c1ccc(-c3nc4ccc(N5C(=O)c6ccc(C(=O)O)cc6C5=O)cc4[nH]3)cc1)C2=O [FMP-201300]
- IC50: 780 nM
